The nature of data set [1]: Degree of agglomeration visually evaluated after storage. Format: physicochemical. The conditions noted are these: visual score, good: 0 to poor: 5; after 1 week at 40° C. and 60% relative humidity.
A further data set can be described thus: pH of granules. Format: physicochemical. The conditions noted are these: granules of Table 8 (bubbling tower, different carbon dioxide input times).

Structures are written as SMILES.

Turning to `Cl.NCCCC[C@H](N)C(=O)O` [Comparative Example 7, L-Lysine hydrochloride], the “Degree of agglomeration (good: 0-poor: 5)” value in data set [1] was found to be 1. For the same compound, the pH in the data set “pH of granules” came out at 5.8.

Source of the values: patent US20260020586A1, “METHOD OF PREPARING GRANULAR FEED ADDITIVE” (CJ CHEILJEDANG CORPORATION, priority 2020, published 2026).
